Experimental data from paper doi:10.1101/559534v1 (biorxiv, 2019).

How the values were obtained:
[1] = biological target: T1, ATRR (ATR1R2) (Aspergillus nidulans, UniProt A0A1U8QWA2); assay: glycine betaine reductase inhibition kinetics; type: biochemical
T1 sequence (A0A1U8QWA2 1-1270): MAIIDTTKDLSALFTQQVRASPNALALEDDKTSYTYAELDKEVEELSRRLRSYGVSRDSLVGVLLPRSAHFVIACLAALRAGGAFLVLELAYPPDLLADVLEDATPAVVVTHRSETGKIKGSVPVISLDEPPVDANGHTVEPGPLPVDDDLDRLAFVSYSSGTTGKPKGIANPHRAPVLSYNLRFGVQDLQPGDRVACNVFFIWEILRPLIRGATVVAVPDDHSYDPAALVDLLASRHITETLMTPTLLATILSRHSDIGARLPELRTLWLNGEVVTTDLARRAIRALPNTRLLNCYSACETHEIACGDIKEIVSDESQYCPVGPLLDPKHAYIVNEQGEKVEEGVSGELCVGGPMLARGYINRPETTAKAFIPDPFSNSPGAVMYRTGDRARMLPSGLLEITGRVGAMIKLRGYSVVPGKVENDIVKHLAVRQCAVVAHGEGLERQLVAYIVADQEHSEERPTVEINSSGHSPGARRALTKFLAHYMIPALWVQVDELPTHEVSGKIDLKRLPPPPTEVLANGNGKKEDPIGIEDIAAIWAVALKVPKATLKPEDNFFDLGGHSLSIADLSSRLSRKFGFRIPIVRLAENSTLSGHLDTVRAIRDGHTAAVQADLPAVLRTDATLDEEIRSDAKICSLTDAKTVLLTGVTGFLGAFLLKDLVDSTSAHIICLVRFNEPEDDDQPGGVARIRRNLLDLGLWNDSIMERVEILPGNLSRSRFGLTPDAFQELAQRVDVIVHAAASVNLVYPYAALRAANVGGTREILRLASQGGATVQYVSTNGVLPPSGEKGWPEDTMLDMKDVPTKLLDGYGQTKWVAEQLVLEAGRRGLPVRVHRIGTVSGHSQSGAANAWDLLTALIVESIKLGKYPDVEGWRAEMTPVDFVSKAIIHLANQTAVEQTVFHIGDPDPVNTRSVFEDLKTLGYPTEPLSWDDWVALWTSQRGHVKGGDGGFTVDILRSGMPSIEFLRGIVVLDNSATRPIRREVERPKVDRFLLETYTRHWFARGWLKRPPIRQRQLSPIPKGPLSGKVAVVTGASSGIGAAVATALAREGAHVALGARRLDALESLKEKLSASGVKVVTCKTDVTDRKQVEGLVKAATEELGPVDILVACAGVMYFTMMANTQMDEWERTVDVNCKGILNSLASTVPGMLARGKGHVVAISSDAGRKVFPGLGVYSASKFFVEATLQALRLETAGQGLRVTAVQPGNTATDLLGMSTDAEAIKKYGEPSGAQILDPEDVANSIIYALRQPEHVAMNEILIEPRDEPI

[2] = biological target: T1, ATRR (ATR1R2); assay: carboxylic acid reductase steady-state kinetics; type: biochemical; settings: substrate inhibition

Compound | Ki [1] | Ki [2]
C[N+](C)(C)CCO [Choline] | 0.27 ± 0.03 mM | –
CN(C)C [N(CH3)3H+Cl-] | 2.6 ± 0.5 mM | –
CN(C)CC(=O)O [N,N-Dimethylglycine] | – | 48 ± 9 mM
